Converted amounts (≈) assume the structure as drawn.
Columns and labels:
[1] = target: T1, MIF (Mus musculus, UniProt P34884); test: Oral bioavailability: ex vivo MIF enzymatic activity in liver, brain and lung after IP and PO dosing; set-up: species or system C57BL6 mice
T1 construct: from tissue; host or cells: mouse liver (A7); liver, lung and brain of C57BL6 mice (A20)
Description: The compounds were administered orally (PO) and intraperitoneally (IP) to healthy animals. The inhibition of the MIF liver enzymatic activity determined ex vivo following IP and PO dosing is similar, indicating high oral bioavailability. Furthermore, brain and lung tissues were collected and processed to determine MIF enzymatic activity in these organs. […] Inhibition of MIF enzyme was determined […] following dosing of MIF-002 at 40 mg/kg once a day for three days, both IP and PO (normal C57BL6 mice, n=3). Tissues were collected at sacrifice and processed. Liver, lung, and brain tissues were collected, processed, and used for the determination of MIF enzyme activity. Values are expressed as a percentage calculated using DMSO as control (no inhibition).
Two additional compounds were tested, MIF-035 and MIF-041.

[2] = test system: p53; test: p53 up regulation, p53 luciferase assay; format: cell-based; conditions: 10 μM; FIG. 5
Description: The up regulation of p53 was determined using a commercially available p53 luciferase assay kit. 1×10^5 cells/ml were plated in a 24 well plate and allowed to adhere overnight. MIF antagonists were added to the cells at the indicated concentrations for 16 hours and transiently co-transfected with 0.125 μg/well of p53-responsive luciferase promoter plasmid (Promega, Madison, Wis.) together with 0.0125 μg/well Renilla pRL-null plasmid (Promega) using Lipofectamine (Invitrogen) transfection reagent. After 24 hrs, Firefly and Renilla luciferase activities were measured by the Dual Luciferase Reporter Assay System (Promega, Madison, Wis.) on a TD-20/20 luminometer (Turner Designs).

[3] = test system: primary human T lymphocytes; test: Anti-CD3 induced T lymphocyte activation/proliferation (flow cytometry); format: cell-based; conditions: 25 μM
Description: In order to assess the ability of MIF antagonists to disrupt autoimmune-associated T cell activation, primary human T lymphocytes were prepared using standard Ficoll-gradient preparations. 1×10^6 lymphocytes/ml were resuspended in RPMI/10% FCS and plated onto anti-CD3 antibodies previously immobilized onto tissue culture plates. Control, vehicle control (0.1% DMSO), 25 μM 4-IPP or 25 μM ACT-003 were added to cells and allowed to incubate for 48 hours. Cells were lifted, washed and stained with anti-CD4 or anti-CD8 antibodies and then analyzed by flow cytometry.
To validate the effects of MIF antagonists on T lymphocyte activation, experiments were set up exactly as described above and, 48 hours later, treated and untreated lymphocytes were stained with an anti-CD25 antibody. CD25 is also known as the high affinity IL-2 receptor—a very well characterized and frequently marker of T lymphocyte activation.
In order to investigate the relative kinetics of when 4-IPP and ACT-003 are acting in blocking T lymphocyte activation, we repeated the experiment described above but harvested lymphocytes only 16 hours after anti-CD3 plating. At this early time point during T lymphocyte activation, CD69 is found to be expressed and is usually considered to be an “early marker” of lymphocyte activation.
Finally, to confirm that proliferation of CD4+ and CD8+ T lymphocytes is blocked by 4-IPP-based MIF antagonists, we repeated the experiment as described above, added labeled-BrdU to cells, stained with either labeled anti-CD4 or anti-CD8 antibodies and then assessed relative CD4/CD8 and BrdU labeling in each treatment group.

[4] = test system: DU145 human prostate xenografts; test: In vivo efficacy in DU145 xenograft tumor model; set-up: species or system athymic nude mice; conditions: daily IP 40 mg/kg for 4 weeks; FIG. 8
Description: Athymic nude mice at 7-8 weeks of age were used for the study. Mice were housed in microisolator housing, with food and water provided as libitum, and quarantined for 4 days prior to the initiation of the study. DU145 cells were maintained in McCoy's 5A medium supplemented with 10% fetal bovine serum and 2 mM glutamine. Cells at 80% confluence were harvested using 0.25% trypsin/EDTA solution, washed once with PBS and resuspended in a mixture of serum-free medium/Matrigel (1:1 by volume) at a density of 3×10^6 cells/100 μl. 4 groups of 10 mice each were used in the experiment. DU145 cells suspended in 100 μl of a mixture of medium/Matrigel (1:1) were subcutaneously implanted in the right flank region. Animals were monitored for tumor growth daily after cell implantation. When tumor volumes reached 80-100 mm^3, mice were randomized into 4 groups of 10 mice each using only mice having tumor volumes closest to the mean value. Tumor volumes were measured using the formula V=L×W×H×π/6, where L and W represent the longer and shorter diameters of the tumor and H represents the height of the tumor. Treatment began the day after randomization. Act-MIF-001, ACT-MIF-002, and ACT-MIF-003 were administered daily by IP injection at a dose of 40 mg/kg for 4 weeks. Throughout the entire study, tumor volumes were measured twice weekly and body weights once weekly.

[5] = Solubility in varying solvents; format: physicochemical; conditions: 21 °C, 20-22° C.
[6] = test system: DU145 human prostate xenografts; test: Microvessel density in xenograft tumors (immunohistochemistry); format: in vivo, athymic nude mice; conditions: end of the DU145 xenograft experiment; FIG. 9
Description: At the end of the experiment described in EXAMPLE 69 above, tumors in each group were removed and sliced. Blood vessel density of the tumor tissues was measured by immunohistochemistry. […] These in vivo results confirmed that the compounds described in this application inhibit angiogenesis.

## COc1ccc(-c2cc(I)ncn2)c(F)c1 [ACT-MIF-002, 4-Iodo-6-(2-fluoro-4-methoxyphenyl)pyrimidine]
[1]; 40 mg/kg once a day for three days, IP and PO, FIG. 12
  Inhibition of MIF enzymatic activity in brain and lungs: inhibits MIF enzymatic activity in both the brain and the lungs
[1]; judged from ex vivo MIF inhibition after IP and PO dosing
  Oral bioavailability: orally bioavailable
[1]; judged from ex vivo MIF inhibition in brain
  Crossing of the blood brain barrier: crosses the brain blood barrier

## Fc1ccccc1-c1cc(I)ncn1 [ACT-MIF-003, 4-Iodo-6-(2-fluorophenyl)pyrimidine]
[2]
  p53 regulation: implicated in p53 regulation
[3]; 16 hours, FIGS. 17 and 18
  CD69 expression: only a marginal effect on CD69 expression
[3]; 48 hours, FIGS. 13 and 14
  CD4 and CD8 T lymphocytes after anti-CD3 activation: significantly fewer CD4 and CD8 T lymphocytes
[3]; 48 hours, FIGS. 15 and 16
  Anti-CD3-induced CD25 expression: almost completely blocked the anti-CD3-induced CD25 expression
[3]; 48 hours, FIGS. 19 and 20
  BrdU labeling of CD8+ and CD4+ T lymphocytes (proliferation): almost completely blocked BrdU labeling in both CD8+ and CD4+ T lymphocytes
[4]
  Tumor growth inhibition: significantly inhibited tumor growth
[5]; aqueous with cosolvent or surfactant or cyclodextrin, Cremophor
  solubility: 15 mg/mL (≈ 50 mM)
[5]; aqueous with cosolvent or surfactant or cyclodextrin, Ethanol/Tween 80
  solubility: 20 mg/mL (≈ 66.7 mM)
[5]; oil or lipid, Corn oil
  solubility: 15 mg/mL (≈ 50 mM)
[5]; organic solvent or mixture, DMSO
  solubility: 216 mg/mL (≈ 720 mM)
[5]; organic solvent or mixture, Ethanol
  solubility: 85 mg/mL (≈ 283 mM)
[5]; organic solvent or mixture, PEG-300
  solubility: 66 mg/mL (≈ 220 mM)
[5]; organic solvent or mixture, Propane-diol
  solubility: 25 mg/mL (≈ 83.3 mM)
[6]
  Microvessel density of tumor tissues: decrease in microvessel density with respect to the tumors of the control group with a statistically meaningful difference
